The values below are quoted from earlier work in patent US20260248829A1, “PHOSPHOLIPID COMPOSITIONS COMPRISING EPA AND/OR DHA FOR AMELIORATING NEURODEGENERATION AND AGE-RELATED NEURODEGENERATIVE DISORDERS” (Aker BioMarine Human Ingredients AS, priority 2022, published 2026).

In this data set the test system is dopaminergic neurons in the nigro-striatal circuit. Particulars: young mice.

As for `CC1=C(/C=C/C(C)=C/C=C/C(C)=C/C=C/C=C(C)/C=C/C=C(C)/C=C/C2=C(C)C(=O)[C@@H](O)CC2(C)C)C(C)(C)C[C@H](O)C1=O` [astaxanthin], the “protection of dopaminergic neurons” value is “protects”.
